Data taken from PubChem BioAssay (NCI).
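Method: 48-hour compound exposure of cells in 96-well plates, five concentrations, linear interpolation of endpoints. The concentration for 50% growth inhibition is given as GI50. TGI marks complete inhibition of growth.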

How the values were obtained:
Test in all cases: inhibition of tumour cell growth, NCI panel, 48 h
A549 NSCLC = system: A549 NSCLC
HCT-15 colon = system: HCT-15 colon
SK-MEL-2 melanoma = system: SK-MEL-2 melanoma
SF-539 CNS = system: SF-539 CNS
UO-31 renal = system: UO-31 renal
RXF 393 renal = system: RXF 393 renal
M14 melanoma = system: M14 melanoma
U251 CNS = system: U251 CNS
MCF7 breast = system: MCF7 breast
A498 renal = system: A498 renal

| Structure (SMILES) | GI50 (A549 NSCLC) | TGI (A549 NSCLC) | GI50 (HCT-15 colon) | TGI (HCT-15 colon) | GI50 (SK-MEL-2 melanoma) | TGI (SK-MEL-2 melanoma) | GI50 (SF-539 CNS) | TGI (SF-539 CNS) | GI50 (UO-31 renal) | TGI (UO-31 renal) | GI50 (RXF 393 renal) | TGI (RXF 393 renal) | GI50 (M14 melanoma) | TGI (M14 melanoma) | GI50 (U251 CNS) | TGI (U251 CNS) | GI50 (MCF7 breast) | TGI (MCF7 breast) | GI50 (A498 renal) | TGI (A498 renal) |
| --- | --- | --- | --- | --- | --- | --- | --- | --- | --- | --- | --- | --- | --- | --- | --- | --- | --- | --- | --- | --- |
| O=c1cc(-c2ccccc2)oc2c1ccc1ccccc12 | 23.8 µM | > 100 µM | 30 µM | > 100 µM | 74.7 µM | > 100 µM | 18.6 µM | 76.1 µM | 8.55 µM | > 100 µM | 24.1 µM | 64.4 µM | 61.1 µM | > 100 µM | 17.1 µM | > 100 µM | 13.9 µM | > 100 µM | 11.1 µM | 44.1 µM |
| COc1ccc(-c2cc(-c3ccc(OC)cc3)nc(NCCCNc3ccnc4cc(Cl)ccc34)n2)cc1 | 1.81 µM | 3.66 µM | 1.68 µM | 3.45 µM | 14 µM | 28.4 µM | 7.16 µM | 21.4 µM | 1.32 µM | 2.6 µM | 1.32 µM | 2.74 µM | 1.74 µM | 3.28 µM | 1.6 µM | 3 µM | 1.65 µM | 3.5 µM | 5.32 µM | 18.3 µM |
| CCCCC(OC(=O)c1ccc(N)cc1)C(=O)Nc1nc(CC(=O)OCC)cs1 (stereo not given) | 37.5 µM | > 100 µM | 40.2 µM | > 100 µM | 25.7 µM | 77.4 µM | 33.1 µM | > 100 µM | 40.9 µM | > 100 µM | 38.1 µM | > 100 µM | 32.8 µM | > 100 µM | 44.6 µM | > 100 µM | 34.8 µM | > 100 µM | 57.4 µM | > 100 µM |
| CCOC(=O)c1c2c(n3ccc(NC(=O)CCN4CCCCC4)cc13)C(=O)c1ncccc1C2=O | 0.0547 µM | 2.81 µM | 1.13 µM | 2.86 µM | 3.99 µM | 23.8 µM | 0.292 µM | 2 µM | 0.0315 µM | 1.46 µM | 0.256 µM | 2.4 µM | 0.17 µM | 1.76 µM | 1.09 µM | 2.47 µM | < 0.01 µM | 1.95 µM | 0.806 µM | 29 µM |
| NNc1nc2ccccc2o1 |  | > 100 µM |  | > 100 µM |  | > 100 µM |  | > 100 µM |  | > 100 µM |  | > 100 µM |  | > 100 µM |  | > 100 µM |  | > 100 µM |  | > 100 µM |
| FC(F)(F)c1nc(SCc2ccc(Cl)cc2)n[nH]1 |  | > 100 µM |  | > 100 µM |  | > 100 µM |  | > 100 µM |  | > 100 µM |  | > 100 µM |  | > 100 µM |  | > 100 µM |  | > 100 µM |  | > 100 µM |
| COC(=O)C1=C(C(=O)ON)[C@@H]2C=C[C@@]1([C@@H](Cc1ccccc1)Nc1ccccc1)O2 | 16.9 µM | 32.2 µM | 1.76 µM | 4.1 µM | 15.6 µM | 30 µM | 15.5 µM | 29 µM | 1.51 µM | 2.84 µM | 1.67 µM | 3.04 µM | 1.87 µM | 3.89 µM | 14.3 µM | 27.6 µM | 2.34 µM | 8.12 µM | 12.3 µM | 24.8 µM |
| O=c1oc2ccc(Cl)cc2c(=O)n1-c1ccc(F)cc1F | 2.08 µM | > 100 µM | 2.32 µM | 13.5 µM | 1.13 µM | 3.97 µM | 1.68 µM | 8.67 µM | 1.22 µM | 7.97 µM | 1.76 µM | 5.72 µM | 0.558 µM | 5.03 µM | 1.87 µM | 36.7 µM | 2.42 µM | > 100 µM | 0.372 µM | 1.68 µM |
